“Also recorded” adds a separate entry of the source.
Assays:
[1] = system: unilateral IRI-AKI; assay: Unilateral IRI-AKI (left renal pedicle clamping 28 min with contralateral nephrectomy) in mice pretreated with PHAD; assay type: in vivo, mouse (male BALB/c)
Method: (§1) A blinded, randomized controlled study in mice, assessed the efficacy of intravenous 3D 6-Acyl phosphorylated hexa-acyl disaccharide (PHAD, a de novo ultrapure synthetic toll-like receptor 4 agonist), to protect against IRI-AKI. Two cohorts of male BALB/c mice received intraperitoneal vehicle or PHAD (10, 20, or 40 μg); or intravenous vehicle or PHAD (2, 20, or 200 μg) at 48 and 24 hours prior to unilateral renal pedicle clamping and simultaneous contralateral nephrectomy (unilateral IRI-AKI). In a separate cohort, mice were treated with vehicle or 200 μg of PHAD followed by bilateral IRI-AKI. Mice were monitored for 3 days after reperfusion and euthanized.
(§2) Kidney function was assessed by blood urea nitrogen (BUN) and serum creatinine measurements. Kidney tubular injury was assessed by semi-quantitative analysis of tubular morphology on PAS-stained kidney sections, and kidney mRNA quantification of injury (N-Gal, Kim-1 and HO-1) and inflammation (IL-6, IL-1b and TNF-α) using qRT-PCR technique. Additional studies were conducted using immunohistochemistry to quantify Kim-1 and F4/80 protein to assess kidney injury and macrophages, respectively. […] Histological injury and N-Gal mRNA were lower, and IL-1b mRNA higher in 200 μg 3D 6-Acyl PHAD treated mice.
(§3) Ischemia Reperfusion Induced Acute Kidney Injury. Male BALB/c mice, 10- to 11-weeks old (22 to 25 g) were purchased from Charles River (Hollister, CA), and were allowed to acclimate for one week prior to studies. IRI-AKI surgery was performed under ketamine/xylazine anesthesia (120 mg/kg [3 mg ketamine], 12 mg/kg [0.3 mg] xylazine) administered in 100 μl sterile saline by intraperitoneal (IP) injection. Mice underwent two types of surgery to induce IRI-AKI. Unilateral IRI-AKI with contralateral nephrectomy (unilateral IRI), and in separate cohorts, bilateral IRI-AKI. For unilateral IRI, the mouse was placed prone on a heat pad set to 37° C., and incisions were made in the muscle and skin to exteriorize the right kidney for nephrectomy. The adrenal gland was displaced from the kidney, and 5-0 silk suture (Ethicon, LA53G) was tied around the renal artery, vein, and ureter with a double surgical knot, before the kidney was removed by cutting distally to the knot. The left kidney was then exteriorized, and fat and connective tissue were dissected from the renal pedicle to expose the renal artery and vein. A vascular clamp (Roboz, cat #RS-5459) was applied to the renal vasculature for 28 minutes. The kidney was tucked back under the skin and the mouse was kept warm on the heat pad during the 28 minutes of ischemia time. For bilateral IRI-AKI, mice underwent bilateral renal artery ischemia for 24 minutes without nephrectomy. Successful ischemia was confirmed by a dark purple appearance of the kidney prior to clamp removal, and successful reperfusion was confirmed by a return to the normal pink color of the kidney within 1-2 min of clamp removal. Upon removing the vascular clamp, the muscle wall was closed with 6-0 absorbable suture (Ethicon, J492G) followed by skin closure with 7 mm wound clips (Roboz, RS-9255, RS-9250). Upon skin closure, mice received 0.5 ml of warm sterile saline subcutaneous (SQ) immediately after surgery, and at 24 hours after surgery. Analgesia was provided with buprenorphine SQ immediately after surgery and every 12 hours for 3 days. Sham operated mice underwent the same surgical approaches (for unilateral IRI-AKI, they underwent right nephrectomy, but the left renal pedicle was not clamped, and for bilateral IRI-AKI, both kidneys were exteriorized but the renal pedicles were not clamped). Blood was collected at baseline (prior to injury), and days 1 and 3 after injury by submandibular vein puncture into a lithium-heparin coated microcuvette tubes, and plasma frozen at −80° C. for blood urea nitrogen (BUN) and creatinine assays. […]

[2] = system: bilateral IRI-AKI; assay: Bilateral IRI-AKI (bilateral renal pedicle clamping 24 min) in mice pretreated with PHAD; assay type: in vivo, mouse (male BALB/c)
Method: as §1, §2, §3

[3] = IV PHAD 2, 20, 200 μg/mouse 48 and 24 h before injury, vs vehicle, post-injury day 1 and 3 (FIG. 1A)
[4] = IV PHAD 200 μg/mouse 48 and 24 h before injury, 24 and 72 hours after bilateral IRI-AKI (FIG. 2A)
[5] = IV PHAD 200 μg/mouse vs vehicle, Day 3 (FIG. 2F)
[6] = IV PHAD 200 μg/mouse vs vehicle, Day 3 (FIG. 3)

Compound: CCCCCCCCCCCCCC(=O)OC(CCCCCCCCCCC)CC(=O)NC1C(O)OC(COC2OC(CO)C(OP(=O)(O)O)C(OC(=O)CC(CCCCCCCCCCC)OC(=O)CCCCCCCCCCCCC)C2NC(=O)CC(CCCCCCCCCCC)OC(=O)CCCCCCCCCCCCC)C(O)C1O.N (stereo not shown) [PHAD, monophosphoryl hexa-acyl Lipid A, 3-Deacyl 6-acyl phosphorylated hexa-acyl disaccharide]
- Histological injury ([1]; 200 μg (Example 1)): lower
- IL-1b mRNA ([1]; 200 μg (Example 1)): higher
- renal Kim-1 mRNA expression (qRT-PCR) ([1]; 200 μg PHAD, Day 3 (FIG. 1E)): no reduction
- renal N-Gal mRNA expression (qRT-PCR) ([1]; 200 μg PHAD, Day 3 (FIG. 1E)): reduction in expression
- renal N-Gal mRNA expression (qRT-PCR) ([1]; 200 μg PHAD, Day 3 (FIG. 1E), listed as 3D 6-Acyl PHAD): lower
- survival compared with the vehicle control group ([1]; 2 and 20 μg pretreatment dose (FIG. 1D)): more mice survived
- BUN levels [1, 3]: reduced elevations
- creatinine levels [1, 3]: reduced elevations
- renal IL-1β mRNA (qRT-PCR) ([1]; IV PHAD 2, 20, 200 μg/mouse vs vehicle control (FIG. 1E)): dose-dependent increase
- 3-day survival ([1]; IV PHAD 2, 20, 200 μg/mouse vs vehicle, log-rank test (FIG. 1D)): no significant improvement in survival
- tubular injury in the cortex and OSOM (PAS-stained sections) ([1]; IV PHAD, increasing doses, Day 3 after injury (FIGS. 1B, 1C)): reduced tubular injury
- renal function ([1]; pretreatment with PHAD at 48 and 24 h before unilateral IRI-AKI (Example 1)): dose-dependent preservation of renal function
- BUN levels [2, 4]: reduced
- creatinine levels [2, 4]: reduced
- 3-day survival ([2]; IV PHAD 200 μg/mouse vs vehicle (FIG. 6)): no difference in survival
- renal IL-1β mRNA (qRT-PCR) [2, 5]: increased
- renal IL-6 mRNA (qRT-PCR) [2, 5]: no differences
- renal Kim-1 mRNA (qRT-PCR) [2, 5]: no differences
- renal N-Gal mRNA (qRT-PCR) [2, 5]: lower levels
- renal Tnf-α mRNA (qRT-PCR) [2, 5]: no differences
- F4/80 staining for renal macrophages [2, 6]: no difference in F4/80 staining
- area of cells expressing Kim-1 protein (immunostaining), outer medulla [2, 6]: significant reduction; also recorded: significantly reduced
- renal expression of Ho-1 mRNA (qRT-PCR) ([2]; IV PHAD 200 μg/mouse vs vehicle, Day 3 (FIG. 4A)): reduced
- renal Irf-1 mRNA (qRT-PCR) ([2]; IV PHAD 200 μg/mouse vs vehicle, Day 3 (FIG. 4B)): no differences in expression
- renal Ccl-2 mRNA (qRT-PCR) ([2]; IV PHAD 200 μg/mouse vs vehicle, Day 3 (FIG. 4C)): no differences in expression
- renal Ccl-3 mRNA (qRT-PCR) ([2]; IV PHAD 200 μg/mouse vs vehicle, Day 3 (FIG. 4D)): no differences in expression
- tubular injury (PAS-stained sections, outer stripe of outer medulla) ([2]; IV PHAD 200 μg/mouse, Day 3 (FIGS. 2B, 2D)): reduced tubular injury
- apoptosis (TUNEL, outer stripe of outer medulla) ([2]; IV PHAD 200 μg/mouse, Day 3 (FIGS. 2C, 2E)): reduced apoptosis
